According to patent publication US11000033B2, “Ketone or oxime compound, and herbicide” (NISSAN CHEMICAL CORPORATION, priority 2014, dated 2021):

Tests used:
Format in all cases: in vivo
Galium spurium = test: Test Example 5: herbicidal effect by foliage application, plastic box (symbol Q); settings: 320 g/ha, 3 weeks after application
Summary of the method: (§1)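 Greenhouse foliar test: seedlings at 14 days, grown 25° C. to 30° C. in sterilized diluvial soil; compound applied as an aqueous dilution of an emulsion; response read 3 weeks after spraying.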

Digitaria ciliaris [1] = test: Test Example 4: herbicidal effect by soil treatment (symbol F)
Summary of the method: (§2)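 Seeds were sown in sterilized diluvial soil, covered with about 1.5 cm of soil, and the soil surface was sprayed with a water-diluted emulsion of the compound at a predetermined rate. Plants grew in a greenhouse at 25° C. to 30° C.; effects were scored visually 3 weeks after application.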

Amaranthus retroflexus = test: Test Example 4: herbicidal effect by soil treatment (symbol N)
Summary of the method: as §2

[2] = tested on: Echinochloa oryzacola Vasing.; test: Test Example 1: herbicidal activity, application before weed generation in submerged conditions (symbol A); settings: application herbicide amount 320 g/ha
Summary of the method: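 Greenhouse growth at 25–30 °C lasted 3 weeks after treatment, when each weed was graded 0–5 by herbicidal ratio. Treatment was a diluted emulsion applied to the water surface of 4 cm-submerged alluvial soil on the sowing day.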

rapeseed = test: Test Example 4: effect on crop by soil treatment (symbol g); settings: for g: rapeseed, effect grade on crop: 320 g/ha; for g: rapeseed, effect on crop grade: application herbicide amount 320 g/ha
Summary of the method: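 Soil-treatment setup: crop and weed seeds were spot-sown into sterilized diluvial soil, then buried beneath approximately 1.5 cm of it, and the boxes were housed in a 25–30° C. greenhouse.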

Alopecurus myosuroides = test: Test Example 4: herbicidal effect by soil treatment (symbol J)
Summary of the method: as §2

Leptochloa chinensis = test: Test Example 3: herbicidal effect by foliage application, Wagner pot (symbol D); settings: application herbicide amount 320 g/ha
Summary of the method: (§3)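 Foliar spray of water-diluted emulsion formulation at a predetermined herbicide amount onto 14-day-old plants in flooded alluvial soil (water depth 0.1–0.5 cm), greenhouse 25–30 °C; rice sown alongside. Scored 3 wk post-application on set criteria.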

Veronica persica = test: Test Example 4: herbicidal effect by soil treatment (symbol R)
Summary of the method: as §2

Lolium multiflorum Lam. = test: Test Example 5: herbicidal effect by foliage application, plastic box (symbol K); settings: 320 g/ha, 3 weeks after application
Summary of the method: as §1

Chenopodium album = test: Test Example 5: herbicidal effect by foliage application, plastic box (symbol O); settings: 320 g/ha, 3 weeks after application
Summary of the method: as §1

Abutilon theophrasti = test: Test Example 5: herbicidal effect by foliage application, plastic box (symbol M); settings: 320 g/ha, 3 weeks after application
Summary of the method: as §1

Setaria viridis [3] = test: Test Example 4: herbicidal effect by soil treatment (symbol G)
Summary of the method: as §2

Stellaria media = test: Test Example 5: herbicidal effect by foliage application, plastic box (symbol P); settings: 320 g/ha, 3 weeks after application
Summary of the method: as §1

rice plant = test: Test Example 5: effect on crop by foliage application, plastic box (symbol b); settings: 320 g/ha, 3 weeks after application
Summary of the method: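 Sterilized diluvial soil, plastic box (21 × 13 × 7 cm); spot sowing, ~1.5 cm soil cover; greenhouse 25–30° C.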

Avena fatua = test: Test Example 4: herbicidal effect by soil treatment (symbol I)
Summary of the method: as §2

Apera spica-venti = test: Test Example 5: herbicidal effect by foliage application, plastic box (symbol L); settings: 320 g/ha, 3 weeks after application
Summary of the method: as §1

[4] = tested on: Echinochloa crus-galli var. crus-galli; test: Test Example 3: herbicidal effect by foliage application, Wagner pot (symbol H); settings: application herbicide amount 320 g/ha
Summary of the method: as §3

Setaria viridis [5] = test: Test Example 5: herbicidal effect by foliage application, plastic box (symbol G); settings: 320 g/ha, 3 weeks after application
Summary of the method: as §1

Digitaria ciliaris [6] = test: Test Example 5: herbicidal effect by foliage application, plastic box (symbol F); settings: 320 g/ha, 3 weeks after application
Summary of the method: as §1

[7] = application herbicide amount 320 g/ha

SMILES	Q: Galium spurium, herbicidal effect grade (Galium spurium)	F: Digitaria ciliaris, herbicidal effect grade (Digitaria ciliaris [1]; 320 g/ha)	N: Amaranthus retroflexus, herbicidal effect grade (Amaranthus retroflexus; 320 g/ha)	Herbicidal effect grade, A: Echinochloa oryzacola Vasing. [2]	g: rapeseed, effect grade on crop (rapeseed)	J: Alopecurus myosuroides, herbicidal effect grade (Alopecurus myosuroides; 320 g/ha)	herbicidal effect on D (Leptochloa chinensis), grade 0-5 (Leptochloa chinensis)	R: Veronica persica, herbicidal effect grade (Veronica persica; 320 g/ha)	K: Lolium multiflorum Lam., herbicidal effect grade (Lolium multiflorum Lam.)	O: Chenopodium album, herbicidal effect grade (Chenopodium album)	M: Abutilon theophrasti, herbicidal effect grade (Abutilon theophrasti)	G: Setaria viridis, herbicidal effect grade (Setaria viridis [3]; 320 g/ha)	P: Stellaria media, herbicidal effect grade (Stellaria media)	b: directly sowed rice plant, effect on crop grade (rice plant)	I: Avena fatua, herbicidal effect grade (Avena fatua; 320 g/ha)	L: Apera spica-venti, herbicidal effect grade (Apera spica-venti)	herbicidal effect on H (Echinochloa crus-galli var. crus-galli), grade 0-5 [4]	G: Setaria viridis, herbicidal effect grade (Setaria viridis [5])	F: Digitaria ciliaris, herbicidal effect grade (Digitaria ciliaris [6])	F: Digitaria ciliaris, herbicidal effect grade (Digitaria ciliaris [1]; [7])	further results
CON=C(C)CC1CC(OS(=O)(=O)c2ccc(C)cc2)=C(c2c(C)cc(C)cc2C)C1=O (stereo not shown) [1-161]	0 (Herbicidal ratio of 5% or lower (almost no effect))	5 (Herbicidal ratio of 90% or more (almost completely withered))	0 (Herbicidal ratio of 5% or lower (almost no effect))	5 (Herbicidal ratio of 90% or more (almost completely withered))	2 (Herbicidal ratio of 20% or higher and lower than 40%)	3 (Herbicidal ratio of 40% or higher and lower than 70%)	5 (Herbicidal ratio of 90% or more (almost completely withered))	0 (Herbicidal ratio of 5% or lower (almost no effect))	5 (Herbicidal ratio of 90% or more (almost completely withered))	0 (Herbicidal ratio of 5% or lower (almost no effect))	0 (Herbicidal ratio of 5% or lower (almost no effect))	0 (Herbicidal ratio of 5% or lower (almost no effect))	0 (Herbicidal ratio of 5% or lower (almost no effect))	3 (Herbicidal ratio of 40% or higher and lower than 70%)	0 (Herbicidal ratio of 5% or lower (almost no effect))	5 (Herbicidal ratio of 90% or more (almost completely withered))	4 (Herbicidal ratio of 70% or higher and lower than 90%)	0 (Herbicidal ratio of 5% or lower (almost no effect))	4 (Herbicidal ratio of 70% or higher and lower than 90%)		
CON=C(C)CC1CC(O)=C(c2c(C)cc(-c3ccc(Cl)nc3)cc2C)C1=O (mixture of isomers) [6-035]	4 (Herbicidal ratio of 70% or higher and lower than 90%)			5 (Herbicidal ratio of 90% or more (almost completely withered))			5 (Herbicidal ratio of 90% or more (almost completely withered))		5 (Herbicidal ratio of 90% or more (almost completely withered))	3 (Herbicidal ratio of 40% or higher and lower than 70%)	4 (Herbicidal ratio of 70% or higher and lower than 90%)		3 (Herbicidal ratio of 40% or higher and lower than 70%)	5 (Herbicidal ratio of 90% or more (almost completely withered))		5 (Herbicidal ratio of 90% or more (almost completely withered))	5 (Herbicidal ratio of 90% or more (almost completely withered))	5 (Herbicidal ratio of 90% or more (almost completely withered))	5 (Herbicidal ratio of 90% or more (almost completely withered))	5 (Herbicidal ratio of 90% or more (almost completely withered))	N: Amaranthus retroflexus, herbicidal effect grade (Amaranthus retroflexus; [7]): 0 (Herbicidal ratio of 5% or lower (almost no effect)); g: rapeseed, effect on crop grade (rapeseed): 0 (Herbicidal ratio of 5% or lower (almost no effect)); J: Alopecurus myosuroides, herbicidal effect grade (Alopecurus myosuroides; [7]): 4 (Herbicidal ratio of 70% or higher and lower than 90%); R: Veronica persica, herbicidal effect grade (Veronica persica; [7]): 3 (Herbicidal ratio of 40% or higher and lower than 70%); G: Setaria viridis, herbicidal effect grade (Setaria viridis [3]; [7]): 5 (Herbicidal ratio of 90% or more (almost completely withered)); I: Avena fatua, herbicidal effect grade (Avena fatua; [7]): 3 (Herbicidal ratio of 40% or higher and lower than 70%)
CCOC(=O)C(CC)(C(C)=O)C1CC(O)=C(c2c(C)cc(C)cc2C)C1=O (stereo not shown) [2-012]	0 (Herbicidal ratio of 5% or lower (almost no effect))			0 (Herbicidal ratio of 5% or lower (almost no effect))			0 (Herbicidal ratio of 5% or lower (almost no effect))		3 (Herbicidal ratio of 40% or higher and lower than 70%)	0 (Herbicidal ratio of 5% or lower (almost no effect))	0 (Herbicidal ratio of 5% or lower (almost no effect))		0 (Herbicidal ratio of 5% or lower (almost no effect))	4 (Herbicidal ratio of 70% or higher and lower than 90%)		0 (Herbicidal ratio of 5% or lower (almost no effect))	0 (Herbicidal ratio of 5% or lower (almost no effect))	0 (Herbicidal ratio of 5% or lower (almost no effect))	0 (Herbicidal ratio of 5% or lower (almost no effect))	0 (Herbicidal ratio of 5% or lower (almost no effect))	N: Amaranthus retroflexus, herbicidal effect grade (Amaranthus retroflexus; [7]): 0 (Herbicidal ratio of 5% or lower (almost no effect)); g: rapeseed, effect on crop grade (rapeseed): 0 (Herbicidal ratio of 5% or lower (almost no effect)); J: Alopecurus myosuroides, herbicidal effect grade (Alopecurus myosuroides; [7]): 0 (Herbicidal ratio of 5% or lower (almost no effect)); R: Veronica persica, herbicidal effect grade (Veronica persica; [7]): 0 (Herbicidal ratio of 5% or lower (almost no effect)); G: Setaria viridis, herbicidal effect grade (Setaria viridis [3]; [7]): 0 (Herbicidal ratio of 5% or lower (almost no effect)); I: Avena fatua, herbicidal effect grade (Avena fatua; [7]): 0 (Herbicidal ratio of 5% or lower (almost no effect))
CON=C(C)CC1CC(OC(=O)c2ccc(C(F)(F)F)cc2)=C(c2c(C)cc(C)cc2C)C1=O (stereo not shown) [1-149]		5 (Herbicidal ratio of 90% or more (almost completely withered))	4 (Herbicidal ratio of 70% or higher and lower than 90%)	5 (Herbicidal ratio of 90% or more (almost completely withered))	4 (Herbicidal ratio of 70% or higher and lower than 90%)	5 (Herbicidal ratio of 90% or more (almost completely withered))	5 (Herbicidal ratio of 90% or more (almost completely withered))	0 (Herbicidal ratio of 5% or lower (almost no effect))				5 (Herbicidal ratio of 90% or more (almost completely withered))			0 (Herbicidal ratio of 5% or lower (almost no effect))		5 (Herbicidal ratio of 90% or more (almost completely withered))				Q: Galium spurium, herbicidal effect (criteria 0-5) (Galium spurium): 3 (Herbicidal ratio of 40% or higher and lower than 70%); K: Lolium multiflorum Lam., herbicidal effect (criteria 0-5) (Lolium multiflorum Lam.): 5 (Herbicidal ratio of 90% or more (almost completely withered)); O: Chenopodium album, herbicidal effect (criteria 0-5) (Chenopodium album): 2 (Herbicidal ratio of 20% or higher and lower than 40%); M: Abutilon theophrasti, herbicidal effect (criteria 0-5) (Abutilon theophrasti): 4 (Herbicidal ratio of 70% or higher and lower than 90%); P: Stellaria media, herbicidal effect (criteria 0-5) (Stellaria media): 3 (Herbicidal ratio of 40% or higher and lower than 70%); b: directly sowed rice plant, effect on crop (criteria 0-5) (rice plant): 5 (Herbicidal ratio of 90% or more (almost completely withered)); L: Apera spica-venti, herbicidal effect (criteria 0-5) (Apera spica-venti): 5 (Herbicidal ratio of 90% or more (almost completely withered)); G: Setaria viridis, herbicidal effect (criteria 0-5) (Setaria viridis [5]): 5 (Herbicidal ratio of 90% or more (almost completely withered)); F: Digitaria ciliaris, herbicidal effect (criteria 0-5) (Digitaria ciliaris [6]): 5 (Herbicidal ratio of 90% or more (almost completely withered))
